{"source": "patent US20140221385A1", "about": "“COMBINATIONS OF SEROTONIN RECEPTOR AGONISTS FOR TREATMENT OF MOVEMENT DISORDERS” (CONCIT PHARMA APS, priority 2011, published 2014)", "key": {"[1]": {"tested_on": "6-OHDA unilateral lesion model rats", "assay": "Forepaw adjusting steps (FAS) test, 6-OHDA induced akinesia", "format": "in vivo, rat", "settings": "for average percentage of adjusting steps (impaired paw to intact paw): L-DOPA 3 mg/kg with 15 mg/kg benserazide s.c. 60 min pretest"}, "[2]": {"tested_on": "unilaterally 6-OHDA-lesioned rats", "assay": "L-DOPA induced AIMs and drugs screening test in the 6-OHDA rat model", "format": "in vivo", "settings": "for L-DOPA-induced dyskinesia (AIMs): Example XIII; for L-DOPA induced AIMs (Lim+Ax+OI): Example X, FIG. 5", "experimental": "6-OHDA (6-hydroxydopamine) is a neurotoxin that selectively kills dopaminergic and noradrenergic neurons and induces a reduction of dopamine levels in the brain. Administration of L-DOPA to unilaterally 6-OHDA-lesioned rats induces abnormal involuntary movements (ATMs). These are axial, limb and oral movements that occur only on the body side that is […] to the lesion.\nDA-denervating lesions are performed by unilateral injection of 6-OHDA in the ascending nigrostriatal pathway. Rats were anesthetized with pentobarbital sodium 40 mg/kg (i.p.) and positioned in a stereotactic frame. 6-OHDA is injected into the right ascending DA bundle at the following coordinates (in mm) relative to bregma and dural surface: (1) toothbar position −2.3, A=−4.4, L=1.2, V=7.8, (7.5 ug 6-OHDA), (2) toothbar position +3.4, A=−4.0, L=0.8, V=8.0 mm (6 ug 6-OHDA). The neurotoxin injections are performed at a rate of 1 ul/min, and the injection cannula is left in place for an additional 2-3 min thereafter. Two weeks after surgery rats with nearly complete (>90%) lesions are selected by means of an amphetamine-induced rotation test. The animals are placed in plastic Perspex bowls (30 cm in diameter) and the rotational behavior (360° turns) is recorded by an automated rotometer for 90 min after the i.p. injection of 2.5 mg/kg d-amphetamine sulphate. […] Animals are then allocated into two well-matched sub-groups (according to the amphetamine rotation) and receive daily treatment as described below.\nL-DOPA methyl ester (Sigma-Aldrich, Germany) is given at the dose of 6 mg/kg, combined with 15 mg/kg of benserazide HCl (Sigma-Aldrich, Germany). […] The selected rats are allocated groups of 9-12 animals each, which are balanced with the respect to AIM severity. The animals are then treated with the drug and drug combinations as described below.\nAIMs ratings are performed by an investigator who was kept unaware of the pharmacological treatment administered to each rat (experimentally blinded). […] The AIM's are classified into four subtypes:\n(A) axial AIMs, i.e., dystonic or choreiform torsion of the trunk and neck towards the side contralateral to the lesion. In the mild cases: lateral flexion of the neck or torsional movements of the upper trunk towards the side contralateral to the lesion. With repeated injection of L-DOPA, this movement may develop into a pronounced and continuous dystonia-like axial torsion. (B) limb AIMs, i.e., jerky and/or dystonic movements of the forelimb contralateral to the lesion. In mild cases: hyperkinetic, jerky stepping movements of the forelimb contralateral to the lesion, or small circular movements of the forelimb to and from the snout. As the severity of dyskinesia increases (which usually occurs with repeated administration of L-DOPA), the abnormal movements increase in amplitude, and assume mixed dystonic and hyperkinetic features. Dystonic movements are caused by sustained co-contraction of agonist/antagonist muscles; they are slow and force a body segment into unnatural positions. Hyperkinetic movements are fast and irregular in speed and direction. […] (C) orolingual AIMs, i.e., twitching of orofacial muscles, and bursts of empty masticatory movements with protrusion of the tongue towards the side contralateral to the lesion. This form of dyskinesia affects facial, tongue, and masticatory muscles. It is recognizable as bursts of empty masticatory movements, accompanied to a variable degree by jaw opening, lateral translocations of the jaw, twitching of facial muscles, and protrusion of the tongue towards the side contralateral to the lesion. […] Each of the four subtypes are scored on a severity scale from 0 to 4, where 0=absent, 1=present during less than half of the observation time, 2=present for more than half of the observation time, 3=present all the time but suppressible by external stimuli, and 4=present all the time and not suppressible by external stimuli."}, "[3]": {"tested_on": "Parkinson's disease", "settings": "cited from earlier work"}, "[4]": {"tested_on": "naïve rats", "assay": "Open field test (Example VI)", "format": "in vivo, rat", "settings": "pentobarbital 15 mg/kg i.p. 30 min before test, positive control; FIG. 3", "experimental": "The open field test was used to determine the effects of drug on locomotor activity. Rats were put in open-field chambers (dimensions 40 cm×40 cm×40 cm) 30 minutes after dosing. After a 15 minutes habituation, locomotion were recorded and analysed by Enthovision Video Tracking Software (Noldus Information Technology, Netherlands) for 60 minutes. All locomotor activities were done during dark phase and to eliminate olfactory cues, the arena was thoroughly cleaned with 70% v/v ethanol between each test.\nGroup setting for compound tests: Vehicle: Saline, i.p., 30 min before test, n=10 Positive control: Pentobarbital 15 mg/kg, i.p. 30 min before test, n=10\nZolmitriptan 3 mg/kg, i.p. 5 min before buspirone Buspirone 1 mg/kg, i.p. 30 min before test, n=10\nStatistical analysis: The total locomotor activity is expressed as total moved distance (cm) and average velocity (cm/s) during 60 minutes. The data were analysed using One-Way ANOVA and the Tukey post-hoc test. The locomotor activity in six time point is expressed as moved distance (cm) and average velocity (cm/s) every 10 minutes. The data were analysed using One-Way ANOVA and the Tukey post-hoc test in each time point."}, "[5]": {"tested_on": "Sprague-Dawley (SD) rats", "assay": "Rotarod test (Example V)", "format": "in vivo, rat", "settings": "pentobarbital 15 mg/kg i.p. 30 min before test, positive control; FIG. 2", "experimental": "In brief, the animals (30 SD male rats (180-220 g, bred in house, originally from SLAC Laboratory Animal Co. Ltd) at 9-week of age) were trained twice a day for a 3-day period. […] Each training trial was ended if the animal fell off or grips the device and spun around for two consecutive revolutions. The time that rat stayed on the Rotarod was recorded. The staying duration recorded at last training trail was used as baseline. Rats were grouped according a randomly distribution of baseline.\nFor the test session on the fourth day, the rats were evaluated on the Rotarod with the same setting as above at 30 min after dosing. The rats were dosed with drugs as described below. Dosing and Rotarod measurement were conducted by two scientists separately. Pentobarbital (15 mg/kg. i.p.) was used a as a positive control.\nVehicle: Saline, i.p., 30 min before test, n=10 Positive control: Pentobarbital 15 mg/kg, i.p. 30 min before test, n=10\nThe data were analyzed using One-Way ANOVA and the Tukey post-hoc test."}, "[6]": {"tested_on": "Huntington's disease", "settings": "one patient suffering from Huntington's disease; cited from earlier work"}, "[7]": {"tested_on": "LID", "settings": "cited from earlier work"}}, "data": [{"molecule": "N[C@@H](Cc1ccc(O)c(O)c1)C(=O)O", "note": "[L-DOPA, 3,4-dihydroxyphenylalanine]", "values": [{"measurement": "average percentage of adjusting steps (impaired paw to intact paw)", "setting": "[1]; first study", "value": 77.8, "unit": "%"}, {"measurement": "6-OHDA induced akinesia, forelimb use", "setting": "[1]; first study, acute L-DOPA 3 mg/kg with 15 mg/kg benserazide", "value": "alleviated 6-OHDA induced akinesia by increasing the forelimb use"}, {"measurement": "forelimb use", "setting": "[1]; second study, L-DOPA 3 mg/kg with 15 mg/kg benserazide HCl", "value": "significantly increase the forelimb use"}, {"measurement": "average percentage of adjusting steps (impaired paw to intact paw)", "setting": "[1]; second study", "value": 77.7, "unit": "%"}]}, {"molecule": "O=C1CC2(CCCC2)CC(=O)N1CCCCN1CCN(c2ncccn2)CC1", "note": "[buspirone, 8-[4-(4-pyrimidin-2-ylpiperazin-1-yl)butyl]-8-azaspiro[4.5]decane-7,9-dione]", "values": [{"measurement": "L-DOPA-induced AIM (Total AIMs)", "setting": "[2]; Example IV, FIG. 1, buspirone 1 mg/kg i.p. given alone", "value": "only partly reduced AIM"}, {"measurement": "L-DOPA-induced AIM (Total AIMs)", "setting": "[2]; Example VII, FIG. 4, buspirone 0.5 mg/kg i.p. given alone", "value": "only partly reduced AIM"}, {"measurement": "L-DOPA-induced dyskinesia (AIMs)", "setting": "[2]; buspirone 0.25 and 0.5 mg/kg s.c. 25 min before test", "value": "significantly reduced L-DOPA-induced dyskinesia"}, {"measurement": "disability ratings", "setting": "[3]; 100 mg/day", "value": "significant worsening of disability ratings"}, {"measurement": "dyskinesia", "setting": "[3]; 100 mg/day", "value": "reduced dyskinesia"}, {"measurement": "effects on Parkinson's disease or dyskinesia", "setting": "[3]; 10-60 mg/day", "value": "did not have any effects on Parkinson's disease or dyskinesia"}]}, {"molecule": "CCCC(C)C1(CC)C(=O)NC(=O)NC1=O", "note": "(stereo not shown) [pentobarbital]", "values": [{"measurement": "open field locomotor activity (total move distance)", "setting": "[4]", "value": "significantly reduced motor performance"}, {"measurement": "rotarod performance (time on the rod)", "setting": "[5]", "value": "significantly reduced time spend on the rotarod"}]}, {"molecule": "O=C1[C@H]2CCCC[C@H]2C(=O)N1CCCCN1CCN(c2nsc3ccccc23)CC1", "note": "[perospirone, (3aR, 7aS)-2-{4-[4-(1,2-benzisothiazol-3-yl)piperazin-1-yl]butyl}hexahydro-1H-isoindole-1,3(2H)-dione]", "values": [{"measurement": "involuntary movement", "setting": "[6]", "value": "could reduce involuntary movement"}]}, {"molecule": "Fc1ccc(-c2cncc(CNC[C@H]3CCc4ccccc4O3)c2)cc1", "note": "[sarizotan, 1-[(2R)-3,4-dihydro-2H-chromen-2-yl]-N-([5-(4-fluorophenyl)pyridin-3-yl]methyl)methanamine]", "values": [{"measurement": "LID", "setting": "[7]; phase 2A study and open labeled study", "value": "reduced LID"}, {"measurement": "LID, effect compared to placebo", "setting": "[7]; several large phase 2b studies", "value": "no significant effects"}]}, {"molecule": "O=C1[C@@H]2[C@@H]3CC[C@@H](C3)[C@@H]2C(=O)N1CCCCN1CCN(c2ncccn2)CC1", "note": "[tandospirone, (1R,2R,6S,7S)-4-{4-[4-(pyrimidin-2-yl)piperazin-1-yl]butyl}-4-azatricyclo[5.2.1.02,6]decane-3,5-dione]", "values": [{"measurement": "L-DOPA induced AIMs (Lim+Ax+OI)", "setting": "[2]; tandospirone 1 mg/kg i.p. 30 min before test", "value": "partially and briefly reduce AIMs"}, {"measurement": "L-DOPA induced AIMs (Lim+Ax+OI)", "setting": "[2]; tandospirone 2 mg/kg i.p. 30 min before test", "value": "partially and briefly reduce AIMs"}, {"measurement": "L-DOPA-induced dyskinesia (AIMs)", "setting": "[2]; tandospirone 1 and 2 mg/kg i.p. 25 min before test", "value": "significantly reduced L-DOPA-induced dyskinesia"}]}, {"molecule": "CN(C)CCc1c[nH]c2ccc(C[C@H]3COC(=O)N3)cc12", "note": "[zolmitriptan, (S)-4-({3-[2-(dimethylamino)ethyl]-1H-indol-5-yl}methyl)-1,3-oxazolidin-2-one]", "values": [{"measurement": "L-DOPA-induced AIM (Total AIMs)", "setting": "[2]; Example IV, FIG. 1, zolmitriptan 10 mg/kg i.p. given alone", "value": "did not reduce AIM"}]}]}
